Results: PMC9497102, “Thiosemicarbazone Derivatives Developed to Overcome COTI-2 Resistance” (Cancers, 2022)
Marks after values point to notes of the source that are not given here.

Tests used:
[1] = system: SW480 and SW480/Coti cells; test: HPLC-MS cell uptake measurements; assay type: cell-based, human; settings: 10 µM, 3 h; for uptake lower in resistant SW480/Coti cells compared with parental SW480 cells: LC-MS (method not validated)
Description: Cells (1 × 10^6) were seeded in 25 cm^2 culture flasks and left to recover for 24 h at 37 °C and 5% CO2. The compounds were dissolved in DMSO (10 mM) and further diluted in the growth medium. The cells were treated in triplicate by replacing the growth medium with 5 mL of drug-containing medium (10 µM). After 3 h of incubation the cells were washed once with ice-cold PBS, and then collected by scraping into ice-cold PBS. The cell suspension was centrifuged for 5 min at 300× g and the supernatant was removed. Then, the cell pellets were lysed with three freeze/thaw cycles in liquid nitrogen/37 °C waterbath and re-suspended in 100 µL of water and 300 µL of cold acetonitrile (1:3 mixture). After 10 min of incubation on ice, the samples were centrifuged (15,080× g, 4 °C, and 10 min) and the supernatants were stored at −80 °C for HPLC-MS analysis. For the calibration curve, known concentrations of drugs were spiked into untreated cell extracts before adding acetonitrile. To normalize to the cell number, additional flasks were prepared (treated and untreated) and cells were collected by trypsinization and counted with counting chambers.
LC-MS analyses of the cell and media extracts were performed on a Vanquish Horizon UHPLC system (Thermo Fisher Scientific, Waltham, MA, USA) coupled to the ESI source of a timsTOF fleX mass spectrometer (Bruker Daltonics, Billerica, MA, USA). […] High-resolution ESI-MS spectra were recorded using the positive ion mode in the range of m/z 150–510 at a spectra rate of 2 Hz. […] For quantification, extracted ion chromatograms of m/z 249.1168 ± 0.0020 for COTI-NMe2 and of m/z 367.1699 ± 0.0020 for COTI-2 were calculated and the peak areas were determined using Bruker Compass Data Analysis 5.3.
In general, it must be mentioned that the LC-MS method for quantification of COTI-2 and COTI-NMe2 was not validated and that the deviation of the peak areas both within a batch and between batches was higher than expected. […]

[2] = Parallel artificial membrane permeability assay (PAMPA); assay type: in vitro ADME; settings: pH 7.4, 25 °C, read-out: Peff
Description: The thermodynamic solubility of COTI-NMeCy, COTI-Nme2, COTI-NH2, and COTI-2 was measured for the saturated solutions in water at pH 7.4 (20 mM HEPES buffer) at 25.0 ± 0.1 °C. The concentrations of the compounds were determined by UV-vis spectrophotometry using stock solutions of the compounds with known concentrations dissolved in pure DMSO, and 50% and 1% (v/v) DMSO/buffered aqueous solution for the calibration. The parallel artificial membrane permeability assay (PAMPA) was applied for the ligands with a Corning Gentest pre-coated PAMPA Plate System. Peff values were calculated according to the equation reported by Yu et al..

[3] = system: SW480/Coti cells; test: MTT viability assay with ABCB1/ABCC1 inhibitors verapamil and CSA; assay type: cell-based, human; settings: 1 µM CSA and 10 µM verapamil, 72 h
Description: For the cytotoxicity, cell viability, and proliferation studies, the 3-(4,5-dimethylthiazol-2-yl)-2,5-diphenyltetrazolium bromide (MTT) assay was utilized. Cells were seeded in 96-well plates at a density of 2 × 10^4 cells/well, with the exception of SW480/Tria, which was used at a density of 3 × 10^4 cells/well. After 24 h of recovery, cells were treated with the indicated concentration of drugs. For the drug combination experiments, verapamil and cyclosporine A (CSA) were used as […] modulators, and tetrathiomolybdate (TTM) was used as a copper chelator. The TSCs were dissolved in DMSO followed by subsequent dilutions in the medium in order to maintain a final DMSO concentration of <1%. After 72 h, the treatment solution was removed and replaced with 100 µL of MTT solution (EZ4U, Biomedica, Vienna, Austria), which was diluted 1:10 in the growth medium. A TECAN Infinite 200 Pro plate reader was used to measure the absorbance of the solution after 2–3 h incubation at 5% CO2 in an incubator at 37 °C. The anticancer activity was determined with GraphPad Prism software and indicated as IC50 values (half maximum inhibitory concentration).

[4] = system: SW480/Tria cells; design: method as in PMID 33190481; settings: 72 h, MTT; cited from earlier work
[5] = Cyclic voltammetry of iron(III)–ligand (1:2) systems; assay type: physicochemical; settings: cL = 1 mM, pH 7.40, 25 °C, 90% (v/v) DMSO/H2O, 0.01 V/s scan rate
Description: Cyclic voltammograms for the Fe(III) and Cu(II) complexes were recorded in 90% (v/v) DMSO/water solution containing 1 mM ligand and 0.5 mM FeCl3 or 1 mM CuCl2 using a conventional three-electrode system under nitrogen atmosphere and a PC-Controlled Electrochemical Measurement System (EF 451). The ionic strength was 0.10 M, adjusted by TBAN. Samples were purged for 15 min with Ar before recording the cyclic voltammograms. Platinum electrodes were used as the working and auxiliary electrodes, and Ag/AgCl (3 M KCl) was applied as the reference electrode. The electrochemical potentials were converted into the normal hydrogen electrode (NHE) scale by adding 0.222 V. The instrument was calibrated with an aqueous solution of K3[Fe(CN)6] (E1/2 = +0.386 V vs. NHE). Redox potentials were obtained at different scan rates (5–25 mV/s) in the range of −0.8 to +0.1 V. The dependence of the peak current values of the square root of the scan rates is shown in Figure S5 for the iron and copper complexes of COTI-NMeCy.

[6] = system: SW480/Coti cells; design: method as in PMID 33190481; settings: 72 h, MTT; cited from earlier work
[7] = design: method as in PMID 33190481; settings: after formation of mixed-ligand GSH adduct; cited from earlier work
[8] = system: GLC-4/adr cells (ABCC1-overexpressing); design: method as in PMID 33190481; settings: cited from earlier work
[9] = system: GLC-4 cells; design: method as in PMID 33190481; settings: 72 h, MTT; cited from earlier work

| Compound | uptake lower in resistant SW480/Coti cells compared with parental SW480 cells [1] | lower intracellular drug levels compared with COTI-2 ([1]; both SW480 and SW480/Coti) | Papp [2] | impact of verapamil and CSA on activity [3] | IC50 [4] | E’ vs. NHE, iron(III)–ligand (1:2) systems [5] | IC50 [6] | redox reaction of the copper(II) complex with GSH [7] | IC50 ([8]; 72 h, MTT) | Relative Resistance GLC-4/adr ([8]; IC50 of GLC-4/adr divided by IC50 of parental GLC-4) | IC50 [9] |
| --- | --- | --- | --- | --- | --- | --- | --- | --- | --- | --- | --- |
| CN(C)C(=S)NN=C1CCCc2cccnc21 (mixture of isomers) [COTI-NMe2, 2-(6,7-Dihydroquinolin-8(5H)-ylidene)-N^4,N^4-dimethylhydrazine-1-carbothioamide] | no difference | 10–20 fold | 16 ± 0.1 ×10⁻⁶ cm/s | no relevant impact |  |  |  |  |  |  |  |
| S=C(N/N=C1\CCCc2cccnc21)N1CCN(c2ccccn2)CC1 [COTI-2, 4-(pyridine-2-yl)-N-([(8E)-5,6,7,8-tetrahydroquinolin-8-ylidene]amino)piperazine-1-carbothioamide] | ~ 40% |  |  |  | 410 ± 160 nM | +0.11 V | 9510 ± 3110 nM | spectra were almost unchanged within 6 h | 480 ± 150 nM | 17.3 * | 30 ± 10 nM |
